In patent US6660501B2, “Production of proteins by cell culture” (Lonza Group, AG, priority 1986, dated 2003):

Columns and labels:
[1] = test system: hybridoma cells (as Example 1, NB1/19); experiment: Butyrate-enhanced antibody production in hybridoma cells cultured in serum supplemented medium; type: cell-based, mouse; settings: DMEM + 10% foetal calf serum
Method: The IgM secreting mouse hybridoma cell line NB1/19 was grown in suspension culture in Dulbeccos Modified Eagles Minimum (DMEM) serum-free medium containing albumin, insulin, transferrin, gentamycin and other additives as required to cultivate cells in suspension culture. The NB1/19 cell line produces a mouse monoclonal antibody having specificity for an antigenic determinant of human B-type blood cells. The preparation of this call line is described in detail in the specification of British Patent GB 2097425B. It will be appreciated, however, that other hybridoma cell lines may be used in place of this particular cell line as appropriate in this and other examples.
The cells were grown to a viable cell density of 1.0-1.5×10^6 cells/ml. Viable cell density was determined by counting the number of cells which exclude trypan blue, a staining agent. A sample of the suspension culture was diluted in a serum-free medium to a density of about 1.3×10^5 cells/ml. […]
The shake flasks were gassed with 5% CO2-95% air, and sealed and incubated with shaking at 37° C. for up to 207 hours. (Table 1). Samples ([…]) were removed from the culture by pipette. 100 μl was used to determine viable cell count and the reminder centrifuged at 300×g for five minutes. Supernatants were stored at −20° C. prior to antibody determination by enzyme linked immunosorbent assay (ELISA).
The protocol for this experiment is similar to that outlined in Example 1, except that the cells were cultured in Dulbeccos Modified Eagles Minimum medium supplemented with 10% foetal calf serum.

hybridoma cell line A = experiment: Harvest antibody titre, hybridoma cell line A; type: cell-based; settings: SFM, control 28
Method: (§1) Hybridoma cells were grown in suspension culture in either serum-free medium (see Example 1) or in DMEM supplemented with 10% (v/v), heat inactivated foetal calf serum. Cells were cultured in either roller bottles or in shake-flasks, as in Example 1. Sodium butyrate was added to cultures immediately after inoculation.

hybridoma cell line B = experiment: Harvest antibody titre, hybridoma cell line B; type: cell-based; settings: SFM + 10% FCS, control 173
Method: as §1

hybridoma cell line C = experiment: Harvest antibody titre, hybridoma cell line C; type: cell-based; settings: DMEM + 10% FCS, 0.50 mM butyrate, control 51
Method: as §1

hybridoma cell line D = experiment: Harvest antibody titre, hybridoma cell line D; type: cell-based; settings: SFM + 10% FCS, control 29
Method: as §1

hybridoma cell line E = experiment: Harvest antibody titre, hybridoma cell line E; type: cell-based; settings: SFM, control 46
Method: as §1

hybridoma cell line J = experiment: Harvest antibody titre, hybridoma cell line J; type: cell-based
Method: as §1

hybridoma cell line K = experiment: Harvest antibody titre, hybridoma cell line K; type: cell-based; settings: SFM + 1% FCS, 0.50 mM butyrate, control 15
Method: as §1

Hybridoma cells = experiment: Effect of sodium butyrate on a variety of hybridoma cell lines (summary statement); type: cell-based; settings: butyrate added immediately after inoculation
Method: as §1

HeLa-cell cultures = settings: cited from earlier work

CCCC(=O)[O-].[Na+] [sodium butyrate]
Average specific rate of antibody production ([1]; 0.5 mM sodium butyrate): 39 μg/10^6 cells/day | Maximum antibody concentration ([1]; 0.5 mM sodium butyrate): 54 µg/mL | Average specific rate of antibody production ([1]; 0.75 mM sodium butyrate): 69 μg/10^6 cells/day | Maximum antibody concentration ([1]; 0.75 mM sodium butyrate): 55 µg/mL | HARVEST ANTIBODY TITER (hybridoma cell line A; 0.35 mM butyrate): 35 mg/L | HARVEST ANTIBODY TITER (hybridoma cell line A; 0.50 mM butyrate): 36 mg/L | HARVEST ANTIBODY TITER (hybridoma cell line B; 0.35 mM butyrate): 232 mg/L | HARVEST ANTIBODY TITER (hybridoma cell line B; 0.50 mM butyrate): 240 mg/L | HARVEST ANTIBODY TITER (hybridoma cell line C): 71 mg/L | HARVEST ANTIBODY TITER (hybridoma cell line D; 0.35 mM butyrate): 39 mg/L | HARVEST ANTIBODY TITER (hybridoma cell line D; 0.50 mM butyrate): 50 mg/L | HARVEST ANTIBODY TITER (hybridoma cell line E; 0.35 mM butyrate): 56 mg/L | HARVEST ANTIBODY TITER (hybridoma cell line E; 0.50 mM butyrate): 86 mg/L | HARVEST ANTIBODY TITER (hybridoma cell line J; DMEM + 10% FCS, 0.50 mM butyrate, control 32): 54 mg/L | HARVEST ANTIBODY TITER (hybridoma cell line J; DMEM + 10% FCS, 0.75 mM butyrate, control 32): 55 mg/L | HARVEST ANTIBODY TITER (hybridoma cell line J; SFM, 0.50 mM butyrate, control 37): 72 mg/L | HARVEST ANTIBODY TITER (hybridoma cell line J; SFM, 1.00 mM butyrate, control 37): 102 mg/L | HARVEST ANTIBODY TITER (hybridoma cell line K): 26 mg/L | amount of antibody produced per cell (Hybridoma cells): increased the amount of antibody produced per cell | human choriogonadotropin synthesis (HeLa-cell cultures; 1 mM, Ghosh et al, Cox & McClure): induce human choriogonadotropin synthesis | cell growth (HeLa-cell cultures; butyrate treatment): inhibited cell growth
